Assay results from patent US20230165974A1, “COMPOSITIONS AND METHODS FOR DELIVERING PHARMACEUTICALLY ACTIVE AGENTS” (MEDIMMUNE, LLC, priority 2020, published 2023).

How the values were obtained:
C2C12 = experiment: Toxicity of polymer materials in vitro (metabolic/luminescent viability assay); type: cell-based
H1299 cells = experiment: as above; type: cell-based; settings: H1299, 16-hour exposure, polymer in OPTI-MEM
Procedure: Material toxicity was assessed using live dead assays.
H1299 cells were seeded in 96-well plates (10000/well). After a 24 h recovery period, cells were treated with 0.1 to 2 μg of PEI (25K, Polyscience, Inc., Philadelphia Pa.), PLL (Alamanda Polymers, Inc., Huntsville Ala., 5 kDa), and P: PLL(M) 33, P: PLL(MN) 33, and P: PLL(TM) 33″ prepared in OPTI-MEM. After a 16-hour exposure, cells were analysed using a live/dead stain or metabolic assay. For the live/dead assay, 10 μL of Calcein AM (2 mM in DMSO) and 5 of propidium iodide (2 mM DMSO) stock solutions were dissolved in 5 mL of PBS. The cells were then washed with PBS twice and staining solution added (100 μL/well). After a 30-minute incubation period at 37° C., the cells were imaged using an IncuCyte plate reader (Sartorius). Alternatively, metabolic assays were performed using Celriter-Glo·Luminescent Assay using the manufacturers standard protocol. Luminescence measurements were collected using a PHERAStar plate reader (BMG LabTech) and IC50 doses were derived by fitting the data in Microsoft excel.

Substance: Poly-L-lysine [P: PLL]
- Toxicity/IC50 (C2C12): 0.33 μg/well
- Toxicity/IC50 (H1299 cells): 0.21 μg/well
